In patent US9951028B2, “Agricultural chemicals” (REDAG CROP PROTECTION LTD, priority 2013, dated 2018):

What was measured:
Format in all cases: in vivo
[1] = tested on: garden cress, Lepidium sativum; assay: Herbicidal efficacy screen, potter tower spray, necrosis assessed; conditions: 200 g/ha
Procedure: (§1) Compounds 22, 23 and 24 were screened for herbicidal efficacy against target plants: garden cress, Lepidium sativum, common chickweed, Stellaria media, and white mustard […] alba Plants were obtained as seeds and were grown to the 2-4 true leaf stage. Plants were grown under laboratory conditions, individually in seed trays. Each plant (in an approximately 3 cm diameter plug) was then detached from the tray for spraying. The compounds were screened at a range of five concentrations, diluted in acetone and TweenTM. A carrier only control was also conducted. Treatments were applied directly onto the plants, using a potter tower, at a specified application rate. One plant of each species was sprayed using a potter tower. The 3 different types of plants were placed on a 10 cm diameter platform directly beneath the potter sprayer and sprayed simultaneously. The growth of the plants and any Phytotoxicity effects were then assessed at intervals over 21 days, according to EPPO guideline PP1/135. Five replicas were performed for each treatment, for each species. In the tables below C represents a percentage increase in necrosis relative to the control of 0.1-50; B represents a percentage inhibition of 50-80; and A represents a percentage inhibition of 80-100.

[2] = tested on: white mustard Sinapsis alba; assay: as above
Procedure: as §1

[3] = tested on: Abutilon theophrasti (China Jute); assay: Herbicidal efficacy screen, corrected necrosis
Procedure: (§2) Plants were obtained as seeds and were grown to the 2-4 true leaf stage. Plants were grown under laboratory conditions, individually in seed trays. Each plant (in an approximately 3 cm diameter plug) was then detached from the tray for spraying. The compounds were screened at a range of five concentrations, diluted in acetone and Tween™. A carrier only control was also conducted. Treatments were applied directly onto the plants, using a potter tower, at a specified application rate. One plant of each species was sprayed using a potter tower. The 3 different types of plants were placed on a 10 cm diameter platform directly beneath the potter sprayer and sprayed simultaneously. The growth of the plants and any Phytotoxicity effects were then assessed at intervals over 21 days, according to EPPO guideline PP1/135. In the tables below C represents a percentage increase in necrosis relative to the control of 0.1-50; B represents a percentage inhibition of 50-80; and A represents a percentage inhibition of 80-100. Certain compounds of the invention were screened for herbicidal efficacy against target plants: Amaranthus retroflexus (redroot pigweed), Abutilon theophrasti (China Jute): Capsella bursa-pastoris, (shepherd's-purse) Echinochloa crus-galli, Hordeum vulgare (Barley),

[4] = tested on: Amaranthus retroflexus (redroot pigweed); assay: Herbicidal efficacy screen, corrected necrosis
Procedure: as §2

[5] = tested on: Capsella bursa-pastoris, (shepherd's-purse); assay: Herbicidal efficacy screen, corrected necrosis
Procedure: as §2

[6] = 12.5 g/ha, day 1 post application
[7] = 12.5 g/ha, day 7 post application
[8] = 25 g/ha, day 1 post application
[9] = 25 g/ha, day 7 post application
[10] = 50 g/ha, day 1 post application
[11] = 50 g/ha, day 7 post application
[12] = 100 g/ha, day 1 post application
[13] = 100 g/ha, day 7 post application
[14] = 6.25 g/ha, day 1 post application
[15] = 6.25 g/ha, day 7 post application

Question: How did the Average of necrosis ([1]; day 5 post application) turn out when `CC(C)N(C)S(=O)(=O)/N=C/c1cc(-n2c(=O)cc(C(F)(F)F)n(C)c2=O)c(F)cc1Cl` [Compound 22, 1-[4-Chloro-2-fluoro-5-[(E)-(isopropyl(methyl)sulfamoyl)iminomethyl]phenyl]-3-methyl-2,6-dioxo-4-(trifluoromethyl)pyrimidine] was run?
Answer: B (B represents a percentage inhibition of 50-80)

Question: What about the Average of necrosis ([1]; day 7 post application) of the same molecule?
Answer: B (B represents a percentage inhibition of 50-80)

Question: What about the Average of necrosis ([1]; day 10 post application) of the same molecule?
Answer: A (A represents a percentage inhibition of 80-100)

Question: And the Average of necrosis [2, 6]?
Answer: C (C represents a percentage increase in necrosis relative to the control of 0.1-50)

Question: What about the Average of necrosis ([2]; 12.5 g/ha, day 2 post application) of the same molecule?
Answer: C (C represents a percentage increase in necrosis relative to the control of 0.1-50)

Question: And the Average of necrosis ([2]; 12.5 g/ha, day 3 post application)?
Answer: C (C represents a percentage increase in necrosis relative to the control of 0.1-50)

Question: What about the Average of necrosis ([2]; 12.5 g/ha, day 4 post application) of the same molecule?
Answer: C (C represents a percentage increase in necrosis relative to the control of 0.1-50)

Question: What about the Average of necrosis ([2]; 12.5 g/ha, day 5 post application) of the same molecule?
Answer: C (C represents a percentage increase in necrosis relative to the control of 0.1-50)

Question: What about the Average of necrosis [2, 7] of the same molecule?
Answer: C (C represents a percentage increase in necrosis relative to the control of 0.1-50)

Question: What about the Average of necrosis ([2]; 12.5 g/ha, day 10 post application) of the same molecule?
Answer: B (B represents a percentage inhibition of 50-80)

Question: What about the Average of necrosis [2, 8] of the same molecule?
Answer: C (C represents a percentage increase in necrosis relative to the control of 0.1-50)

Question: What about the Average of necrosis ([2]; 25 g/ha, day 2 post application) of the same molecule?
Answer: C (C represents a percentage increase in necrosis relative to the control of 0.1-50)

Question: What about the Average of necrosis ([2]; 25 g/ha, day 3 post application) of the same molecule?
Answer: C (C represents a percentage increase in necrosis relative to the control of 0.1-50)

Question: And the Average of necrosis ([2]; 25 g/ha, day 4 post application)?
Answer: C (C represents a percentage increase in necrosis relative to the control of 0.1-50)

Question: And the Average of necrosis ([2]; 25 g/ha, day 5 post application)?
Answer: C (C represents a percentage increase in necrosis relative to the control of 0.1-50)

Question: What about the Average of necrosis [2, 9] of the same molecule?
Answer: C (C represents a percentage increase in necrosis relative to the control of 0.1-50)

Question: What about the Average of necrosis ([2]; 25 g/ha, day 10 post application) of the same molecule?
Answer: C (C represents a percentage increase in necrosis relative to the control of 0.1-50)

Question: And the Average of necrosis [2, 10]?
Answer: C (C represents a percentage increase in necrosis relative to the control of 0.1-50)

Question: What about the Average of necrosis ([2]; 50 g/ha, day 2 post application) of the same molecule?
Answer: C (C represents a percentage increase in necrosis relative to the control of 0.1-50)

Question: And the Average of necrosis ([2]; 50 g/ha, day 3 post application)?
Answer: C (C represents a percentage increase in necrosis relative to the control of 0.1-50)

Question: And the Average of necrosis ([2]; 50 g/ha, day 4 post application)?
Answer: C (C represents a percentage increase in necrosis relative to the control of 0.1-50)

Question: And the Average of necrosis ([2]; 50 g/ha, day 5 post application)?
Answer: B (B represents a percentage inhibition of 50-80)

Question: And the Average of necrosis [2, 11]?
Answer: B (B represents a percentage inhibition of 50-80)

Question: And the Average of necrosis ([2]; 50 g/ha, day 10 post application)?
Answer: B (B represents a percentage inhibition of 50-80)

Question: What about the Average of necrosis [2, 12] of the same molecule?
Answer: C (C represents a percentage increase in necrosis relative to the control of 0.1-50)

Question: And the Average of necrosis ([2]; 100 g/ha, day 2 post application)?
Answer: C (C represents a percentage increase in necrosis relative to the control of 0.1-50)

Question: What about the Average of necrosis ([2]; 100 g/ha, day 3 post application) of the same molecule?
Answer: C (C represents a percentage increase in necrosis relative to the control of 0.1-50)

Question: What about the Average of necrosis ([2]; 100 g/ha, day 4 post application) of the same molecule?
Answer: C (C represents a percentage increase in necrosis relative to the control of 0.1-50)

Question: And the Average of necrosis ([2]; 100 g/ha, day 5 post application)?
Answer: C (C represents a percentage increase in necrosis relative to the control of 0.1-50)

Question: What about the Average of necrosis [2, 13] of the same molecule?
Answer: C (C represents a percentage increase in necrosis relative to the control of 0.1-50)

Question: What about the Average of necrosis ([2]; 100 g/ha, day 10 post application) of the same molecule?
Answer: B (B represents a percentage inhibition of 50-80)

Question: And the Average of necrosis ([2]; 200 g/ha, day 1 post application)?
Answer: C (C represents a percentage increase in necrosis relative to the control of 0.1-50)

Question: And the Average of necrosis ([2]; 200 g/ha, day 2 post application)?
Answer: C (C represents a percentage increase in necrosis relative to the control of 0.1-50)

Question: What about the Average of necrosis ([2]; 200 g/ha, day 3 post application) of the same molecule?
Answer: C (C represents a percentage increase in necrosis relative to the control of 0.1-50)

Question: What about the Average of necrosis ([2]; 200 g/ha, day 4 post application) of the same molecule?
Answer: C (C represents a percentage increase in necrosis relative to the control of 0.1-50)

Question: And the Average of necrosis ([2]; 200 g/ha, day 5 post application)?
Answer: C (C represents a percentage increase in necrosis relative to the control of 0.1-50)

Question: And the Average of necrosis ([2]; 200 g/ha, day 7 post application)?
Answer: C (C represents a percentage increase in necrosis relative to the control of 0.1-50)

Question: What about the Average of necrosis ([2]; 200 g/ha, day 10 post application) of the same molecule?
Answer: B (B represents a percentage inhibition of 50-80)

Question: What about the “Average of corrected necrosis” value [3, 14] of the same molecule?
Answer: C (C represents a percentage increase in necrosis relative to the control of 0.1-50)

Question: And the “Average of corrected necrosis” value [3, 15]?
Answer: A (A represents a percentage inhibition of 80-100)

Question: What about the “Average of corrected necrosis” value [3, 6] of the same molecule?
Answer: C (C represents a percentage increase in necrosis relative to the control of 0.1-50)

Question: And the “Average of corrected necrosis” value [3, 7]?
Answer: A (A represents a percentage inhibition of 80-100)

Question: And the “Average of corrected necrosis” value [3, 8]?
Answer: C (C represents a percentage increase in necrosis relative to the control of 0.1-50)

Question: What about the “Average of corrected necrosis” value [3, 9] of the same molecule?
Answer: A (A represents a percentage inhibition of 80-100)

Question: What about the “Average of corrected necrosis” value [3, 10] of the same molecule?
Answer: C (C represents a percentage increase in necrosis relative to the control of 0.1-50)

Question: What about the “Average of corrected necrosis” value [3, 11] of the same molecule?
Answer: A (A represents a percentage inhibition of 80-100)

Question: And the “Average of corrected necrosis” value [3, 12]?
Answer: C (C represents a percentage increase in necrosis relative to the control of 0.1-50)

Question: What about the “Average of corrected necrosis” value [3, 13] of the same molecule?
Answer: A (A represents a percentage inhibition of 80-100)

Question: And the “Average of corrected necrosis” value [4, 14]?
Answer: C (C represents a percentage increase in necrosis relative to the control of 0.1-50)

Question: What about the “Average of corrected necrosis” value [4, 15] of the same molecule?
Answer: A (A represents a percentage inhibition of 80-100)

Question: And the “Average of corrected necrosis” value [4, 6]?
Answer: C (C represents a percentage increase in necrosis relative to the control of 0.1-50)

Question: And the “Average of corrected necrosis” value [4, 7]?
Answer: A (A represents a percentage inhibition of 80-100)

Question: What about the “Average of corrected necrosis” value [4, 8] of the same molecule?
Answer: C (C represents a percentage increase in necrosis relative to the control of 0.1-50)

Question: What about the “Average of corrected necrosis” value [4, 9] of the same molecule?
Answer: A (A represents a percentage inhibition of 80-100)

Question: And the “Average of corrected necrosis” value [4, 10]?
Answer: C (C represents a percentage increase in necrosis relative to the control of 0.1-50)

Question: And the “Average of corrected necrosis” value [4, 11]?
Answer: A (A represents a percentage inhibition of 80-100)

Question: What about the “Average of corrected necrosis” value [4, 12] of the same molecule?
Answer: C (C represents a percentage increase in necrosis relative to the control of 0.1-50)

Question: What about the “Average of corrected necrosis” value [4, 13] of the same molecule?
Answer: A (A represents a percentage inhibition of 80-100)

Question: And the “Average of corrected necrosis” value [5, 14]?
Answer: 0%

Question: And the “Average of corrected necrosis” value [5, 15]?
Answer: A (A represents a percentage inhibition of 80-100)

Question: And the “Average of corrected necrosis” value [5, 6]?
Answer: C (C represents a percentage increase in necrosis relative to the control of 0.1-50)

Question: What about the “Average of corrected necrosis” value [5, 7] of the same molecule?
Answer: A (A represents a percentage inhibition of 80-100)

Question: What about the “Average of corrected necrosis” value [5, 8] of the same molecule?
Answer: C (C represents a percentage increase in necrosis relative to the control of 0.1-50)

Question: What about the “Average of corrected necrosis” value [5, 9] of the same molecule?
Answer: A (A represents a percentage inhibition of 80-100)

Question: And the “Average of corrected necrosis” value [5, 10]?
Answer: 0%

Question: And the “Average of corrected necrosis” value [5, 11]?
Answer: A (A represents a percentage inhibition of 80-100)

Question: And the “Average of corrected necrosis” value [5, 12]?
Answer: C (C represents a percentage increase in necrosis relative to the control of 0.1-50)

Question: And the “Average of corrected necrosis” value [5, 13]?
Answer: A (A represents a percentage inhibition of 80-100)
